Source: US20150080461A1, “Composition Having Antiviral Activity against Flavivirus” (University Malaya, priority 2012, published 2015)
Values after ≈ are worked out from the molar mass of the structure shown.

Experiments:
DENV-2 (NGC strain) [1] = assay: Continuous treatment antiviral activity against DENV-2 (FFURA, qRT-PCR); type: cell-based, Dengue virus type-2
Description: In separate experiment, to determine the antiviral activities of quercetin when used continuously, different concentrations of quercetin were added to the Vero cell monolayer five hours before virus infection. After five hours of pre-infection treatment, the cells were washed twice with sterile PBS and then 200 FFU of DENV-2 was inoculated to the cells and incubated at 37° C. for one hour. Infected cells were continuously incubated with the respective concentration of quercetin for four days post infection. Viral foci formed were counted and DENV RNA copy number to indicate inhibition of virus replication was quantified using quantitative RT-PCR.
(§1) In general, antiviral activity of quercein was evaluated by measuring the reduction in number of viral foci. Confluent Vero cell monolayers prepared in 24 wells cell culture microplates were used. Then the infected cells treated using the different treatment regime was overlaid with 1.5% of carboxy methyl cellulose (CMC) (Sigma-Aldrich, St. Louis, Mo., USA) containing EMEM. Viral foci were visualized using peroxidase-based foci staining assay four days post infection. The number of DENV-2 foci formed was counted under a stereomicroscope and the virus titer was expressed as Foci-Forming-Unit (FFU). The percentage of viral foci reduction (RF %) compared to untreated controls was calculated as follows: […]
(§2) where, C is the mean of the number of foci for negative control well (without compound) and T is the mean of the number of foci in treated wells.
(§3) Reduction in the number of viral foci was further verified using quantitative real time polymerase chain reaction (qRT-PCR) amplification.
(§4) Quantitative RT-PCR was performed to determine the effect of the compound on DENV replication by quantifying DENV-2 genomic RNA copy number. Briefly, intracellular and extracellular DENV-2 RNAs were harvested from the DENV-infected Vero cells. Viral RNA was extracted using two types of RNA extraction kits (QlAamp Viral RNA mini kit and RNeasy mini kit) (Qiagen, Hilden, Germany). Quantitative RT-PCR assay was performed by adding 1 µl of extracted DENV RNA to the SensiMix SYBR green reagent (Quantace, Watford, United Kingdom) which contained 7.4 μl ddH2O, 10 μl 2× SensiMix One-Step, 0.4 μl 50× SYBR Green solution, 10 units of RNAse Inhibitor, 50 pmol of forward (DNF) and also reverse (D2R) primers. All samples were assayed in triplicate. […] For absolute quantitation of the viral RNA, a standard curve was established with a serially diluted RNA extracted from DENV-2 stock with a known titer.

DENV-2 (NGC strain) [2] = assay: Anti-adsorption activity against DENV-2 (FFURA, qRT-PCR); type: cell-based, Dengue virus type-2; conditions: added to cells simultaneously during infection, FFURA and qRT-PCR
Description: In another experiment, Vero cells at ˜80% confluency were infected with 200 FFU of DENV-2 in the presence or absence of different concentrations of quercetin. The microplate was kept at 37° C. for one hour for virus adsorption. Then the cells were washed twice using sterile PBS and incubated for two hours at 37° C. Cells were then incubated for 4 days and foci formed was counted and DENV RNA copy number to indicate inhibition of virus adsorption was quantified using quantitative RT-PCR.
(§5) In general, antiviral activity of quercein was evaluated by measuring the reduction in number of viral foci. Confluent Vero cell monolayers prepared in 24 wells cell culture microplates were used. […] The number of DENV-2 foci formed was counted under a stereomicroscope and the virus titer was expressed as Foci-Forming-Unit (FFU). The percentage of viral foci reduction (RF %) compared to untreated controls was calculated as follows: […]
as §3
(§6) Quantitative RT-PCR was performed to determine the effect of the compound on DENV replication by quantifying DENV-2 genomic RNA copy number. […] For absolute quantitation of the viral RNA, a standard curve was established with a serially diluted RNA extracted from DENV-2 stock with a known titer.

DENV-2 (NGC strain) [3] = assay: Direct virucidal effect against DENV-2 (FFURA, qRT-PCR); type: cell-based, Dengue virus type-2
Description: Direct virucidal effect of quercetin was investigated by incubating DENV-2 suspension containing 200 FFU with an equal volume of the different concentrations of quercetin for two hours at 37° C. Then, Vero cells were infected with the treated viral suspension in triplicates. At one hour adsorption at 37° C., cells were washed twice with PBS in order to remove unadsorbed viruses. The microplate was incubated at 37° C. for four days. Viral foci formed were counted and DENV RNA copy number to indicate direct virucidal effects was quantified using quantitative RT-PCR.
as §5, with “foci.” for “foci. Confluent Vero cell monolayers prepared in 24 wells cell culture microplates were used.”
as §3, §6

[4] = MTT cytotoxicity assay on Vero cells; type: cell-based; conditions: African green monkey, read-out: CC50, cytotoxicity effect against Vero cells
Description: C6/36 mosquito cell line derived from Aedes albopictus and Vero cell line were used. Both cell lines were maintained and propagated in Eagle's Minimum Essential Medium (EMEM) containing 10% fetal bovine serum. Cultured C6/36 and Vero cells were incubated at 28° C. and 37° C., respectively in 5% CO2 humidified chamber. At the time of virus propagation, serum concentration was reduced to 2%. Dengue virus type-2 (DENV-2) New Guinea C strain (NGC) was propagated using C6/36 cell line and harvested after CPE presentation on day seven post infection. After titration, viral stock was stored at -70° C. MTT (Dimethyl thiazolyl diphenyl tetrazolium salt) assay was performed to determine cytotoxicity of quercetin on Vero cells.

DENV-2 (NGC strain) [5] = assay: Post-adsorption antiviral activity against intracellular replication of DENV-2 (FFURA, qRT-PCR); type: cell-based, Dengue virus type-2
Description: Post-adsorption antiviral activity of quercetin against intracellular replication of DENV-2 was performed by inoculating 200 FFU of virus to each well containing monolayer of Vero cells. After adsorption of virus to the cells for one hour at 37° C., the cells were washed with PBS to remove the unadsorped viruses. Then, different concentrations of quercetin were added to the cells followed by four days incubation at 37° C. Viral foci formed were counted and DENV RNA copy number to indicate inhibition of virus replication was quantified using quantitative RT-PCR.
as §1, §2, §3
as §4, with “triplicate. Amplification was performed using the DNA Engine Opticon system (MJ Research/Bio-Rad, Hercules, Calif.) with the following cycling conditions: reverse transcription at 50° C. for 30 min, initial denaturation at 95° C. for 10 min, followed by 45 cycles of 95° C. for 15 sec, 59° C. for 30 sec and 72° C. for 30 sec.” for “triplicate.”

O=c1c(O)c(-c2ccc(O)c(O)c2)oc2cc(O)cc(O)c12 [quercetin, 2-(3,4-dihydroxyphenyl)-3,5,7-trihydroxy-4H-1-benzopyran-4-one]
decrease of the number of DENV-2 foci (DENV-2 (NGC strain) [1]; 50 μg/mL quercetin, continuous treatment of Vero cells, vs non-treated cells): 70%±1.5 | IC50 (DENV-2 (NGC strain) [1]; Dengue virus, DENV2, continuous treatment from 5 hours before infection up to 4 days post-infection, Vero cells, FFURA, read-out: IC50, anti-dengue activity): 28.9 µg/mL (≈ 95.6 µM) | SI value (DENV-2 (NGC strain) [1]; continuous treatment): 8.74 | decrease of DENV-2 RNA production (DENV-2 (NGC strain) [1]; continuous treatment, qRT-PCR): more than 75.7%±1.57 | anti-adsorption activity against DENV-2 (DENV-2 (NGC strain) [2]): ~5% | decrease in copy number of DENV-2 RNA following direct treatment (DENV-2 (NGC strain) [3]; different concentrations of compound, qRT-PCR): no significant decrease | direct virucidal activity against DENV-2 (DENV-2 (NGC strain) [3]; virus incubated with compound two hours at 37° C., foci): no significant direct virucidal activity | CC50 [4]: 252.6 ± 0.17 µg/mL (≈ 836 µM) | decrease of DENV-2 specific RNA production (DENV-2 (NGC strain) [5]; 50 μg/mL quercetin, post-adsorption, qRT-PCR, vs non-treated infected cells): more than 67%±1 | appearance of viral foci in treated cells (DENV-2 (NGC strain) [5]; 50 μg/ml quercetin, foci staining, vs untreated dengue infected cells): small, less intensely stained and more diffused | IC50 (DENV-2 (NGC strain) [5]; Dengue virus, DENV2, added post viral adsorption, Vero cells, FFURA): 35.7 µg/mL (≈ 118 µM) | SI value (DENV-2 (NGC strain) [5]; post-adsorption assay): 7.07
